According to patent US9128087B2, “Nuclear receptor assay” (PamGene B.V., priority 2006, dated 2015):

Biological target: T1, PPAR gamma (Homo sapiens, UniProt P37231)
T1 construct: were incubated with GST-tagged PPAR gamma LBD domain (Invitrogen); purchased Invitrogen
T1 sequence (P37231 238-503 limits assumed): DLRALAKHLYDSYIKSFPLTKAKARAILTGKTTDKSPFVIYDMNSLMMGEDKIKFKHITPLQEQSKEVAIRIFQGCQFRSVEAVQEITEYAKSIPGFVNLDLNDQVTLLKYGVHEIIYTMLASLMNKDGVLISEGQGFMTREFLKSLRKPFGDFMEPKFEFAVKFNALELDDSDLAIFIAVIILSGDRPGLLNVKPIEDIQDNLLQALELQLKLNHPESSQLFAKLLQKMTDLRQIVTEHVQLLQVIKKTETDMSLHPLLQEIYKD
Test: PamChip microarray binding of PPAR gamma LBD to 48 co-regulator derived peptides
Type: biochemical
Conditions: 1E-3.7 M ligand compared to array without ligand
Experimental: A microarray set-up was prepared comprising 48 peptides immobilized, i.e., a set of 48 co-regulator-derived motifs corresponding to SEQ ID NOs 1, 3-13, 15-46, and 50-53. In this experiment each peptide was present once on the array and at a single peptide concentration (1E-1 M spotting concentration). Preparation of these chips was as described in Example 1. Twelve wells of a 96 well plate (FIG. 2A(a)), each well comprising the same peptide microarray, were incubated with GST-tagged PPAR gamma LBD domain (Invitrogen), and 11 different concentrations of ligand and 1 control (absence of ligand). […]
FIG. 2A(b) represents the top view of a row of wells in a 96-well plate (FIG. 2A(a)), showing the fluorescence results obtained for the PAR gamma interaction, induced by GW1929, with a the 48 peptide motives. A magnification is shown of the fluorescence image of the microarray incubated with the highest concentration (1E-3.7 M) of GW1929. […] However, when the effect of GW1929 is read out on peptide 45 (SEQ ID NO. 45), derived from PPRB (PPAR binding protein), this ligand is characterized as a binding agonist. […] As said, for all peptides an EC50 value could be determined, but in FIG. 3 only the values that could be determined accurately (regression coefficient of the fit better than 0.7) are represented.

## GW1929
  binding of PPAR gamma to peptide 31 (SEQ ID NO. 31, NCOR1): decreased binding
  binding of PPAR gamma to peptide 45 (SEQ ID NO. 45, PPRB): increase binding
